The record followed here is paper PMC11740379, “Novel Enyne-Modified 1,4-Thiazepines as Epidermal Growth Factor Receptor Inhibitors: Anticancer and Computational Studies” (ACS Omega, 2024).

The structures appear in SMILES notation. Read-outs that look alike come from different tables or passages of the source.

The target in one series is EGFRT790M kinase (Homo sapiens, UniProt P00533, T790M). The series is described as follows: EGFR kinase inhibition assay (HTRF KinEASE-TK). The format is biochemical. As to the method:
(§1) The inhibitory effects of the target compounds on various EGFR kinases were assessed using a homogeneous time-resolved fluorescence (HTRF) assay, employing the HTRF KinEASE-TK kit (Cat# 62TK0PEC, Cisbio).[18] TZEP7 was tested at a range of diluted concentrations in the presence of 1% dimethyl sulfoxide (DMSO), with the kinase and compounds preincubated for 5 min. The reactions were initiated by adding ATP and TK-substrate-biotin, followed by a 60 min incubation at room temperature. The reactions were then stopped using a stop buffer containing 62.5 nM Strep-XL665 and TK antibody (Ab)-Cryptate. After a 1 h incubation of the plate, readings were taken on a microplate reader under standard HTRF conditions. IC50 values were calculated using GraphPad Prism 5.0 software. Each reaction was duplicated, and at least three independent determinations were conducted. The data were analyzed using GraphPad Prism.
In general terms: Time-resolved FRET reads energy transfer from a long-lived donor to a nearby acceptor.

In the next series the target is EGFRWT kinase (Homo sapiens, UniProt P00533). The series is described as follows: EGFR kinase inhibition assay (HTRF KinEASE-TK). It is filed as biochemical. On the procedure: as §1, with “The reactions were then stopped using a stop buffer containing 62.5 nM Strep-XL665 and TK antibody (Ab)-Cryptate.” left out
The nature of series [1]: XTT cytotoxicity assay, non-tumorigenic cells. To be noted: human, HEK-293 cells (nontumorigenic), read-out: cell viability. The format is cell-based, human. As to the method: (§2) Human cell lines for breast cancer (MCF-7), lung cancer (A549), prostate cancer (PC-3), and nontumorigenic HEK-293 were sourced from the Health Protection Agency (U.K.) and the Interlab Cell Line Collection (Italy). The cells were cultured in RPMI medium (Sigma) supplemented with 10% heat-inactivated fetal bovine serum, 1% penicillin, and 1% L-glutamine, and incubated in a humidified CO2 atmosphere at 37 °C.
(§3) To evaluate the cytotoxic effects of TZEPs, which were dissolved in dimethyl sulfoxide (DMSO), the XTT assay (2,3-bis(2-methoxy-4-nitro-5-sulfophenyl)-2H-tetrazolium-5-carboxanilide) was employed. Cells were plated in 96-well plates at a density of 10^4 cells per well and exposed to varying concentrations of TZEPs (ranging from 1 to 250 μM) for 24, 48, and 72 h. Following the incubation, 100 μL of XTT was added to each well, and the plates were incubated for an additional 4 h at 37 °C. The resulting color change was measured by recording the absorbance at 570 nm using a microplate reader (Tecan).
(§4) The IC50 values, which indicate the concentration of the compound required to inhibit 50% of cancer cell proliferation, were determined using Biosoft CalcuSyn 2.1 software. […] Conversely, an SI less than 1 means the drug is more toxic to normal cells than to target cells, which is undesirable in therapeutic contexts. In the literature, a selectivity index of 2 or higher is generally considered significant, implying that the compound selectively targets diseased cells with relatively low toxicity to healthy cells.[15]

A further series relates to HEK-293 cells. As to the kind of experiment: XTT cytotoxicity assay, non-tumorigenic cells. The format is cell-based, human. To be noted: Homo sapiens, HEK293; XTT assay; exposure time of the IC50 not stated (24, 48, 72 h tested). On the procedure:
as §2, §3, §4

The test system of another series is PC-3 cells. The series is described as follows: XTT cytotoxicity assay, prostate cancer cells. The format is cell-based, human. As to the method: The cells were cultured in RPMI medium (Sigma) supplemented with 10% heat-inactivated fetal bovine serum, 1% penicillin, and 1% L-glutamine, and incubated in a humidified CO2 atmosphere at 37 °C.
To evaluate the cytotoxic effects of TZEPs, which were dissolved in dimethyl sulfoxide (DMSO), the XTT assay (2,3-bis(2-methoxy-4-nitro-5-sulfophenyl)-2H-tetrazolium-5-carboxanilide) was employed. […] Following the incubation, 100 μL of XTT was added to each well, and the plates were incubated for an additional 4 h at 37 °C. The resulting color change was measured by recording the absorbance at 570 nm using a microplate reader (Tecan).
Conversely, an SI less than 1 means the drug is more toxic to normal cells than to target cells, which is undesirable in therapeutic contexts.
On the technique in general: Formazan colour is commonly taken as a measure of viable cells.

Chain of EGFRT790M kinase (P00533 25-1210 T790M): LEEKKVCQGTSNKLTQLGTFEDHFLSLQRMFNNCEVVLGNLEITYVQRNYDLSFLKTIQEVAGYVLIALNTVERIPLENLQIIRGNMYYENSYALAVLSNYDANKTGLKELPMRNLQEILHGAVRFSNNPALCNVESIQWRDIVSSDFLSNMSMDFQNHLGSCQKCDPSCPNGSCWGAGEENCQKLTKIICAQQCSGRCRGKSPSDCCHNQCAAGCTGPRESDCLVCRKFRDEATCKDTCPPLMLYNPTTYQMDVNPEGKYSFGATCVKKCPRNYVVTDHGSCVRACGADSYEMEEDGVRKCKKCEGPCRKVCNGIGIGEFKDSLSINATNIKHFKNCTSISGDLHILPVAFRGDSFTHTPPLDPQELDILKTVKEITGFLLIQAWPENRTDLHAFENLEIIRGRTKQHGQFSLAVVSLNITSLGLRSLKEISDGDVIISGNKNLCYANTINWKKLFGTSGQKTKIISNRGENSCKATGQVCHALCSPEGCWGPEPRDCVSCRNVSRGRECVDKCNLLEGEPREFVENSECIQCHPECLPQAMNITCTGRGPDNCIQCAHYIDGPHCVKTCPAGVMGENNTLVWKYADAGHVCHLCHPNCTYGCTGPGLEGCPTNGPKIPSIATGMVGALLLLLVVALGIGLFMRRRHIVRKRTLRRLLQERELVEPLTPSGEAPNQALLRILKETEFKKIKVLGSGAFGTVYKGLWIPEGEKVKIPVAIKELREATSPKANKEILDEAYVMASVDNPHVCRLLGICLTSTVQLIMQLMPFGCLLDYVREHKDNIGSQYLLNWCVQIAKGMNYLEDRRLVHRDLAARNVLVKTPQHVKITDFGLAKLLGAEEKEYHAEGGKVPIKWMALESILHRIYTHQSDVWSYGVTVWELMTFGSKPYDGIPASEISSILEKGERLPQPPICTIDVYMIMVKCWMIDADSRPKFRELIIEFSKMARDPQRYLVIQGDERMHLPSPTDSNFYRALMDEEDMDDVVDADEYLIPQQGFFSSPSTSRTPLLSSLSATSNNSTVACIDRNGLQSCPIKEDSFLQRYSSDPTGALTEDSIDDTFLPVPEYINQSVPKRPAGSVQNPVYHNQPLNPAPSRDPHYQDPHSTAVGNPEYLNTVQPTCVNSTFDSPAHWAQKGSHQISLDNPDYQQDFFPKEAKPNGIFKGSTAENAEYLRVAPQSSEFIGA
Chain of EGFRWT kinase (P00533 25-1210): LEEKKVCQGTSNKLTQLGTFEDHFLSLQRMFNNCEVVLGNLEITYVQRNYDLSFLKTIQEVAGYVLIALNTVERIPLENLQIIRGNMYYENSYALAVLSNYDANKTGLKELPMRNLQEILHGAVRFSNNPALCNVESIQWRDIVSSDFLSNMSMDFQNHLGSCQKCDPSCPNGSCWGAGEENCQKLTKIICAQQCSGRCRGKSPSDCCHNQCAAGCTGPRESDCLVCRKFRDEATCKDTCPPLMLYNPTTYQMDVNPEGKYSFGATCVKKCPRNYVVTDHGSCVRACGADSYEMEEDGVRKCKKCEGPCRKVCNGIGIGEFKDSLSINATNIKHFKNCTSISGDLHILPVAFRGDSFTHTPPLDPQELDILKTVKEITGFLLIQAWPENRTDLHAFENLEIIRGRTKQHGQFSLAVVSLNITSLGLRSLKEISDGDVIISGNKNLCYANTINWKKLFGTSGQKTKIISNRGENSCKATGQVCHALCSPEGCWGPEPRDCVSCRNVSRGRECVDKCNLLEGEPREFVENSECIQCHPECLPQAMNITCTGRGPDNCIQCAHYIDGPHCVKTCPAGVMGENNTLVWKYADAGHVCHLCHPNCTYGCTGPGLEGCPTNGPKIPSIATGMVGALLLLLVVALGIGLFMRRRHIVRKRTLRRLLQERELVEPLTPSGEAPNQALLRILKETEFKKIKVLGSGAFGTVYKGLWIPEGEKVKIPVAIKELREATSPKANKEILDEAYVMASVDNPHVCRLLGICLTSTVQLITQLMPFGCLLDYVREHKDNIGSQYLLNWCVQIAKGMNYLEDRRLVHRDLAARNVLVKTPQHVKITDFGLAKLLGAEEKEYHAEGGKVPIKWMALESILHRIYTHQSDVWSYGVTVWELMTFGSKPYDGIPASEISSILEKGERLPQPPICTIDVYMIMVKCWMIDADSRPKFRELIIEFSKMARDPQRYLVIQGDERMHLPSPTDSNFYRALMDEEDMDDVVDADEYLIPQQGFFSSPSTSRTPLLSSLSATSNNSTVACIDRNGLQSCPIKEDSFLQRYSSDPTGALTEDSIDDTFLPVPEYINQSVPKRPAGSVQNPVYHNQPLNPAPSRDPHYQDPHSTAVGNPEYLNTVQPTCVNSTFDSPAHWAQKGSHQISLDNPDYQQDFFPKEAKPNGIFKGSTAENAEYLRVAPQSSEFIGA

As a reminder, the IC50 is the concentration that inhibits the measured activity by half. Usually viability stands for a per cent measure of how many cells are alive, often set against a control. For the molecule `Cc1cc(C2=NCC(=CC#Cc3ccccc3)SC(c3ccc(Cl)cc3)=C2)ccc1F` [TZEP7], the 50% inhibitory concentration (IC50) against EGFRT790M kinase was 280 nM; on EGFRT790M kinase (A549 cells), 220 nM; against EGFRT790M kinase (MCF-7 cells), 290 nM; at EGFRWT kinase it was 380 nM; at EGFRWT kinase (A549 cells) it was 360 nM; with HEK-293 cells it was 54300 ± 900 nM. In addition, in the series on PC-3 cells (Homo sapiens, PC-3, XTT assay, exposure time of the IC50 not stated (24, 48, 72 h tested), read-out: IC50, prostate cancer (PC-3)), the IC50 came out at 16900 ± 1600 nM. Also, the viability at 1 µM in series [1] (HEK293, 1 μM) is 57.1%; with PC-3 cells (Homo sapiens, PC-3, 1 μM, read-out: cell viability), 71%. Further, the viability at 10 µM in series [1] (HEK293, 10 μM) turned out to be 44.1%; in the series on PC-3 cells (Homo sapiens, PC-3, 10 μM, read-out: cell viability), 22%. For the same molecule, the viability at 50 µM in series [1] (HEK293, 50 μM) amounted to 31.3%; with PC-3 cells (Homo sapiens, PC-3, 50 μM, read-out: cell viability) it was 18%. In addition, the viability at 100 µM was 24.2% in series [1] (HEK293, 100 μM) and 12% with PC-3 cells (Homo sapiens, PC-3, 100 μM, read-out: cell viability). Further, in the series with PC-3 cells (Homo sapiens, PC-3, 0.1 μM, read-out: cell viability), the viability at 0.1 µM was 83%. In addition, in the series on PC-3 cells (versus normal cells HEK-293), the “Selectivity index (SI), prostate cancer (PC-3)” value is 3.21.
